Assay: xn = mol fraction of the nth substance listed
Settings: 101 kPa, Liquid; for viscosity: Falling or rolling sphere viscometry; for mass density: Vibrating tube method

C[N+]1(CCO)CCOCC1.[Br-] [N-methyl-N-(2-hydroxyethyl)morpholinium bromide] + O
Settings | mass density [kg/m3] | viscosity [mPa·s]
298.15 K, x1 = 0.023 | 1078.7 | 1.173
298.15 K, x1 = 0.038 | 1121 | 1.482
298.15 K, x1 = 0.051 | 1150.9 | 1.716
298.15 K, x1 = 0.075 | 1197.8 | 2.345
298.15 K, x1 = 0.097 | 1232 | 3.195
298.15 K, x1 = 0.124 | 1264.8 | 4.717
298.15 K, x1 = 0.157 | 1297.5 | 7.331
298.15 K, x1 = 0.197 | 1328.8 | 14.15
298.15 K, x1 = 0.227 | 1345.7 | 20.61
303.15 K, x1 = 0.023 | 1076.7 | 1.058
303.15 K, x1 = 0.038 | 1118.8 | 1.33
303.15 K, x1 = 0.051 | 1148.6 | 1.536
303.15 K, x1 = 0.075 | 1195.3 | 2.087
303.15 K, x1 = 0.097 | 1229.3 | 2.831
303.15 K, x1 = 0.124 | 1262 | 4.126
303.15 K, x1 = 0.157 | 1294.6 | 6.314
303.15 K, x1 = 0.197 | 1325.9 | 12.14
303.15 K, x1 = 0.227 | 1342.8 | 17.39
308.15 K, x1 = 0.023 | 1074.6 | 0.962
308.15 K, x1 = 0.038 | 1116.5 | 1.206
308.15 K, x1 = 0.051 | 1146.2 | 1.385
308.15 K, x1 = 0.075 | 1192.7 | 1.878
308.15 K, x1 = 0.097 | 1226.6 | 2.526
308.15 K, x1 = 0.124 | 1259.2 | 3.653
308.15 K, x1 = 0.157 | 1291.7 | 5.635
308.15 K, x1 = 0.197 | 1322.9 | 10.46
308.15 K, x1 = 0.227 | 1339.7 | 14.76
313.15 K, x1 = 0.023 | 1072.3 | 0.88
313.15 K, x1 = 0.038 | 1114.1 | 1.101
313.15 K, x1 = 0.051 | 1143.6 | 1.26
313.15 K, x1 = 0.075 | 1190 | 1.7
313.15 K, x1 = 0.097 | 1223.8 | 2.278
313.15 K, x1 = 0.124 | 1256.4 | 3.255
313.15 K, x1 = 0.157 | 1288.8 | 4.938
313.15 K, x1 = 0.197 | 1319.9 | 9.042
313.15 K, x1 = 0.227 | 1336.7 | 12.6
318.15 K, x1 = 0.023 | 1069.8 | 0.81
318.15 K, x1 = 0.038 | 1111.6 | 1.011
318.15 K, x1 = 0.051 | 1141 | 1.154
318.15 K, x1 = 0.075 | 1187.3 | 1.547
318.15 K, x1 = 0.097 | 1221 | 2.062
318.15 K, x1 = 0.124 | 1253.5 | 2.921
318.15 K, x1 = 0.157 | 1285.8 | 4.371
318.15 K, x1 = 0.197 | 1316.9 | 7.869
318.15 K, x1 = 0.227 | 1333.7 | 10.85
323.15 K, x1 = 0.023 | 1066.9 | 0.754
323.15 K, x1 = 0.038 | 1109 | 0.933
323.15 K, x1 = 0.051 | 1138.2 | 1.061
323.15 K, x1 = 0.075 | 1184.5 | 1.416
323.15 K, x1 = 0.097 | 1218.1 | 1.88
323.15 K, x1 = 0.124 | 1250.5 | 2.641
323.15 K, x1 = 0.157 | 1282.8 | 3.899
323.15 K, x1 = 0.197 | 1313.9 | 6.877
323.15 K, x1 = 0.227 | 1330.6 | 9.429
328.15 K, x1 = 0.023 | 1064.7 | 0.703
328.15 K, x1 = 0.038 | 1106.2 | 0.871
328.15 K, x1 = 0.051 | 1135.9 | 0.982
328.15 K, x1 = 0.075 | 1181.6 | 1.305
328.15 K, x1 = 0.097 | 1215.1 | 1.718
328.15 K, x1 = 0.124 | 1247.6 | 2.4
328.15 K, x1 = 0.157 | 1279.8 | 3.505
328.15 K, x1 = 0.197 | 1310.7 | 6.095
328.15 K, x1 = 0.227 | 1327.5 | 8.272
333.15 K, x1 = 0.023 | 1062.5 | 0.656
333.15 K, x1 = 0.038 | 1103.3 | 0.807
333.15 K, x1 = 0.051 | 1133.3 | 0.913
333.15 K, x1 = 0.075 | 1178.7 | 1.201
333.15 K, x1 = 0.097 | 1212.1 | 1.581
333.15 K, x1 = 0.124 | 1244.5 | 2.186
333.15 K, x1 = 0.157 | 1276.7 | 3.163
333.15 K, x1 = 0.197 | 1307.8 | 5.346
333.15 K, x1 = 0.227 | 1324.2 | 7.316
338.15 K, x1 = 0.023 | 1060.1 | 0.632
338.15 K, x1 = 0.038 | 1101.2 | 0.756
338.15 K, x1 = 0.051 | 1130.8 | 0.849
338.15 K, x1 = 0.075 | 1175.6 | 1.135
338.15 K, x1 = 0.097 | 1209.5 | 1.453
338.15 K, x1 = 0.124 | 1241.5 | 2.007
338.15 K, x1 = 0.157 | 1273.5 | 2.854
338.15 K, x1 = 0.197 | 1304.7 | 4.811
338.15 K, x1 = 0.227 | 1321.1 | 6.504
343.15 K, x1 = 0.023 | 1057.7 | 0.596
343.15 K, x1 = 0.038 | 1098.7 | 0.716
343.15 K, x1 = 0.051 | 1128.3 | 0.796
343.15 K, x1 = 0.075 | 1173.2 | 1.055
343.15 K, x1 = 0.097 | 1206.6 | 1.339
343.15 K, x1 = 0.124 | 1238.3 | 1.873
343.15 K, x1 = 0.157 | 1270.4 | 2.621
343.15 K, x1 = 0.197 | 1301.5 | 4.333
343.15 K, x1 = 0.227 | 1317.9 | 5.834
348.15 K, x1 = 0.023 | 1055.3 | 0.561
348.15 K, x1 = 0.038 | 1096.2 | 0.675
348.15 K, x1 = 0.051 | 1125.7 | 0.749
348.15 K, x1 = 0.075 | 1170.4 | 0.996
348.15 K, x1 = 0.097 | 1203.8 | 1.259
348.15 K, x1 = 0.124 | 1235.2 | 1.719
348.15 K, x1 = 0.157 | 1267.6 | 2.407
348.15 K, x1 = 0.197 | 1298.3 | 3.882
348.15 K, x1 = 0.227 | 1315.1 | 5.243

From the NIST ThermoML archive (doi:10.1016/j.fluid.2019.05.003)
